This test deals with human RAF1 (Homo sapiens, UniProt P04049). The test can be described thus: Protein kinase assay (33P-ATP filter binding), human RAF1, 10-dose IC50. The test is classed as biochemical. Particulars: MEK1 (K97R) substrate 3 micromolar, ATP 10 micromolar, read-out: RAF-1 IC50. The gist of the method: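 Radiometric filter-binding format: 10 µM ATP, 3 µM MEK1 (K97R) as substrate for human RAF1, 2 hr at room temperature in 20 mM HEPES pH 7.5 with 10 mM MgCl2. Compounds were dispensed acoustically from DMSO. IC50 came from percent kinase activity relative to vehicle over a 10-dose series.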

Bounds are passed on as bounds.

Sequence of human RAF1 (P04049 whole entry): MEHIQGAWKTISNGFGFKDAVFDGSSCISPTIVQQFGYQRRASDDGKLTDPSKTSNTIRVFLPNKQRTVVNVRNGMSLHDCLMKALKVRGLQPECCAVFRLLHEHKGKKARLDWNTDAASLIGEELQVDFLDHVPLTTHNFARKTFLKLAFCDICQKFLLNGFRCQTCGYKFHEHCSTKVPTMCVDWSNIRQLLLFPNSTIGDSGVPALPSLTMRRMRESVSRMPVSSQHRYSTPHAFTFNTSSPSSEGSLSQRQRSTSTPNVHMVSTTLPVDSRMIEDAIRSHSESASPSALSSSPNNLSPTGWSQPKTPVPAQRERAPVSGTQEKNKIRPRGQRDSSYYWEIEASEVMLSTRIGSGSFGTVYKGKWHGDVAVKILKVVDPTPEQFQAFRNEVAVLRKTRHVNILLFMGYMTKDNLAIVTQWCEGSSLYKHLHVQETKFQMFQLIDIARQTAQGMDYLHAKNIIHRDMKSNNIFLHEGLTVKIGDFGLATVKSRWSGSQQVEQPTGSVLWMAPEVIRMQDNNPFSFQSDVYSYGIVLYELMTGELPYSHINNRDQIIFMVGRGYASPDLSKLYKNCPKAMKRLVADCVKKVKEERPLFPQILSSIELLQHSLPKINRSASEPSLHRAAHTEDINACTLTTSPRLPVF

For `Cc1ccc(NC(=O)Nc2cnn(CC(F)(F)F)c2)cc1-c1cc(OCCO)nc(N2CCOCC2)c1` [Example 135, 1-[3-[2-(2-hydroxyethoxy)-6-(morpholin-4-yl)pyridin-4-yl]-4-methylphenyl]-3-[1-(2,2,2-trifluoroethyl)pyrazol-4-yl]urea], the IC50 was less than 10 nM. On to `Cc1ccc(NC(=O)N2CC/C(=C\C(F)(F)F)C2)cc1-c1cc(OCCO)nc(N2CCOCC2)c1` [Example 136, (3E)-N-[3-[2-(2-hydroxyethoxy)-6-(morpholin-4-yl)pyridin-4-yl]-4-methylphenyl]-3-(2,2,2-trifluoroethylidene)pyrrolidine-1-carboxamide], for which the IC50 is less than 10 nM. With `Cc1ccc(NC(=O)N2CC[C@H](OCC(F)(F)F)C2)cc1-c1cc(OCCO)nc(N2CCOCC2)c1` [Example 137, (3S)-N-[3-[2-(2-hydroxyethoxy)-6-(morpholin-4-yl)pyridin-4-yl]-4-methylphenyl]-3-(2,2,2-trifluoroethoxy)pyrrolidine-1-carboxamide] the figure was less than 10 nM; with `Cc1ccc(NC(=O)N2CC[C@H](OC(C)C)C2)cc1-c1cc(OCCO)nc(N2CCOCC2)c1` [Example 138, (3S)-N-[3-[2-(2-hydroxyethoxy)-6-(morpholin-4-yl)pyridin-4-yl]-4-methylphenyl]-3-isopropoxypyrrolidine-1-carboxamide], less than 10 nM. As for `Cc1ccc(NC(=O)Nc2cnn(C(C)C)c2)cc1-c1cc(OCCO)nc(N2CCOCC2)c1` [Example 139, 1-[3-[2-(2-hydroxyethoxy)-6-(morpholin-4-yl)pyridin-4-yl]-4-methylphenyl]-3-(1-isopropylpyrazol-4-yl)urea], the IC50 was less than 10 nM. With `Cc1ccc(NC(=O)N2CC[C@H](OC(C)(F)F)C2)cc1-c1cc(OCCO)nc(N2CCOCC2)c1` [Example 140, (3S)-3-(1,1-difluoroethoxy)-N-[3-[2-(2-hydroxyethoxy)-6-(morpholin-4-yl)pyridin-4-yl]-4-methylphenyl]pyrrolidine-1-carboxamide], the IC50 was less than 10 nM. With `Cc1ccc(NC(=O)N(C)c2cnn(C(F)(F)F)c2)cc1-c1cc(OCCO)nc(N2CCOCC2)c1` [Example 141, 1-[3-[2-(2-hydroxyethoxy)-6-(morpholin-4-yl)pyridin-4-yl]-4-methylphenyl]-3-methyl-3-[1-(trifluoromethyl)pyrazol-4-yl]urea] the figure was less than 10 nM; with `Cc1ccc(NC(=O)N2CC[C@H](OC(F)(F)F)C2)cc1-c1cc(OC[C@H](O)CO)nc(N2CCOCC2)c1` [Example 142, (3S)-N-(3-[2-[(2R)-2,3-dihydroxypropoxy]-6-(morpholin-4-yl)pyridin-4-yl]-4-methylphenyl)-3-(trifluoromethoxy)pyrrolidine-1-carboxamide], less than 10 nM. Take `Cc1ccc(NC(=O)N2CC[C@H](OC(F)(F)F)C2)cc1-c1cc(OC[C@@H](O)CO)nc(N2CCOCC2)c1` [Example 143, (3S)-N-(3-[2-[(2S)-2,3-dihydroxypropoxy]-6-(morpholin-4-yl)pyridin-4-yl]-4-methylphenyl)-3-(trifluoromethoxy)pyrrolidine-1-carboxamide]: the IC50 is less than 10 nM. On to `Cc1ccc(NC(=O)N2C[C@@H](OC(F)(F)F)CO2)cc1-c1cc(OCCO)nc(N2CCOCC2)c1` [Example 144, (4R)-N-[3-[2-(2-hydroxyethoxy)-6-(morpholin-4-yl)pyridin-4-yl]-4-methylphenyl]-4-(trifluoromethoxy)-1,2-oxazolidine-2-carboxamide], for which the IC50 is less than 10 nM.

On to `Cc1ccc(NC(=O)N2CCC(=C3CC3)C2)cc1-c1cc(OCCO)nc(N2CCOCC2)c1` [Example 145, 3-cyclopropylidene-N-[3-[2-(2-hydroxyethoxy)-6-(morpholin-4-yl)pyridin-4-yl]-4-methylphenyl]pyrrolidine-1-carboxamide], for which the IC50 is less than 10 nM. Next, `Cc1ccc(NC(=O)N2CC(OC(F)(F)F)CN2)cc1-c1cc(OCCO)nc(N2CCOCC2)c1` (stereo not shown) [Example 146, N-[3-[2-(2-hydroxyethoxy)-6-(morpholin-4-yl)pyridin-4-yl]-4-methylphenyl]-4-(trifluoromethoxy) pyrazolidine-1-carboxamide]: less than 10 nM; `Cc1ccc(NC(=O)n2ccc(C(=O)C(F)(F)F)c2)cc1-c1cc(OCCO)nc(N2CCOCC2)c1` [Example 147, N-[3-[2-(2-hydroxyethoxy)-6-(morpholin-4-yl)pyridin-4-yl]-4-methylphenyl]-3-(2,2,2-trifluoroacetyl)pyrrole-1-carboxamide]: 1000 to 10000 nM; `Cc1ccc(NC(=O)N2CC(O)C(CC(F)(F)F)C2)cc1-c1cc(OCCO)nc(N2CCOCC2)c1` (stereo not shown) [Example 148, 3-hydroxy-N-[3-[2-(2-hydroxyethoxy)-6-(morpholin-4-yl)pyridin-4-yl]-4-methylphenyl]-4-(2,2,2-trifluoroethyl)pyrrolidine-1-carboxamide]: less than 10 nM.

Turning to `Cc1ccc(NC(=O)N2CC[C@@H](OC(F)(F)F)C2)cc1-c1cc(OCC(C)(C)O)nc(N2CCOCC2)c1` [Example 149, (3R)-N-[3-[2-(2-hydroxy-2-methylpropoxy)-6-(morpholin-4-yl)pyridin-4-yl]-4-methylphenyl]-3-(trifluoromethoxy)pyrrolidine-1-carboxamide], the IC50 is less than 10 nM. As for `Cc1ccc(NC(=O)N2CC[C@H](OC(F)(F)F)C2)cc1-c1cc(OC[C@H](C)O)nc(N2CCOCC2)c1` [Example 150, (3S)-N-(3-[2-[(2S)-2-hydroxypropoxy]-6-(morpholin-4-yl)pyridin-4-yl]-4-methylphenyl)-3-(trifluoromethoxy)pyrrolidine-- carboxamide], the IC50 was less than 10 nM.

For `Cc1ccc(NC(=O)N2CC[C@H](OC(F)(F)F)C2)cc1-c1cc(O[C@@H](C)CO)nc(N2CCOCC2)c1` [Example 151, (3S)-N-[3-(2-[[(2S)-1-hydroxypropan-2-yl]oxy]-6-(morpholin-4-yl)pyridin-4-yl)-4-methylphenyl]-3-(trifluoromethoxy)pyrrolidine-1-carboxamide], the IC50 is less than 10 nM. Consider `Cc1ccc(NC(=O)N2CC[C@H](OC(F)(F)F)C2)cc1-c1cc(OCC(C)(C)O)nc(N2CCOCC2)c1` [Example 154, (3S)-N-[3-[2-(2-hydroxy-2-methylpropoxy)-6-(morpholin-4-yl)pyridin-4-yl]-4-methylphenyl]-3-(trifluoromethoxy)pyrrolidine-1-carboxamide], for which the IC50 was less than 10 nM. In the case of `Cc1ccc(NC(=O)N2CC[C@H](OC(F)(F)F)C2)cc1-c1cc(OC[C@@H](C)O)nc(N2CCOCC2)c1` [Example 155, (3S)-N-(3-[2-[(2R)-2-hydroxypropoxy]-6-(morpholin-4-yl)pyridin-4-yl]-4-methylphenyl)-3-(trifluoromethoxy)pyrrolidine-1-carboxamide], the IC50 is less than 10 nM.

Take `Cc1ccc(NC(=O)N(C)c2cnn(C(F)(F)F)c2)cc1-c1cc(OC[C@@H](C)O)nc(N2CCOCC2)c1` [Example 156, 1-(3-[2-[(2R)-2-hydroxypropoxy]-6-(morpholin-4-yl)pyridin-4-yl]-4-methylphenyl)-3-methyl-3-[1-(trifluoromethyl)pyrazol-4-yl]urea]: the IC50 was less than 10 nM. On to `Cc1ccc(NC(=O)N2CCC3(C2)CC(F)(F)C3)cc1-c1cc(OCCO)nc(N2CCOCC2)c1` [Example 167, 2,2-difluoro-N-(3-(2-(2-hydroxyethoxy)-6-morpholinopyridin-4-yl)-4-methylphenyl)-6-azaspiro[3.4]octane-6-carboxamide], for which the IC50 was less than 10 nM. With `Cc1cc(F)c(NC(=O)N2CCS[C@H](C(F)(F)F)C2)cc1-c1cc(OCCO)nc(N2CCOCC2)c1` [Example 168, (S)-N-(2-fluoro-5-(2-(2-hydroxyethoxy)-6-morpholinopyridin-4-yl)-4-methylphenyl)-2-(trifluoromethyl)thiomorpholine-4-carboxamide] the figure was less than 10 nM; with `Cc1cc(F)c(NC(=O)N2CCS[C@@H](C(F)(F)F)C2)cc1-c1cc(OCCO)nc(N2CCOCC2)c1` [Example 169, (R)-N-(2-fluoro-5-(2-(2-hydroxyethoxy)-6-morpholinopyridin-4-yl)-4-methylphenyl)-2-(trifluoromethyl)thiomorpholine-4-carboxamide], less than 10 nM; with `Cc1ccc(NC(=O)N2CC[C@H](OC(F)(F)F)C2)cc1-c1cc(OC(C)(C)CO)nc(N2CCOCC2)c1` [Example 170, (3S)-N-(3-[2-[(1-hydroxy-2-methylpropan-2-yl)oxy]-6-(morpholin-4-yl)pyridin-4-yl]-4-methylphenyl)-3-(trifluoromethoxy)pyrrolidine-1-carboxamide], less than 10 nM. Next, `Cc1ccc(NC(=O)N2CC=C(C(F)(F)F)C2)cc1-c1cc(O[C@H](C)[C@@H](C)O)nc(N2CCOCC2)c1` [Example 171, N-(3-(2-(((2R,3R)-3-hydroxybutan-2-yl)oxy)-6-morpholinopyridin-4-yl)-4-methylphenyl)-3-(trifluoromethyl)-2,5-dihydro-1H-pyrrole-1-carboxamide]: less than 10 nM; `Cc1ccc(NC(=O)N2CC[C@H](OC(F)(F)F)C2)cc1-c1cc(O[C@H](C)[C@@H](C)O)nc(N2CCOCC2)c1` [Example 172, (S)-N-(3-(2-(((2R,3R)-3-hydroxybutan-2-yl)oxy)-6-morpholinopyridin-4-yl)-4-methylphenyl)-3-(trifluoromethoxy)pyrrolidine-1-carboxamide]: less than 10 nM. Take `Cc1ccc(NC(=O)n2ccc(C(C)(C)C)c2)cc1-c1cc(OCCO)nc(N2CCOCC2)c1` [Example 173, 3-(tert-butyl)-N-(3-(2-(2-hydroxyethoxy)-6-morpholinopyridin-4-yl)-4-methylphenyl)-1H-pyrrole-1-carboxamide]: the IC50 was less than 10 nM. Next, `Cc1ccc(NC(=O)N2CC[C@H](OC(F)F)C2)cc1-c1cc(O[C@H](C)[C@@H](C)O)nc(N2CCOCC2)c1` [Example 174, (S)-3-(difluoromethoxy)-N-(3-(2-(((2R,3R)-3-hydroxybutan-2-yl)oxy)-6-morpholinopyridin-4-yl)-4-methylphenyl)pyrrolidine-1-carboxamide]: less than 10 nM.

What is called IC50 is the point on the concentration scale where inhibition reaches its midpoint.
